Reference: publication PMC6788984, “High-potency ligands for DREADD imaging and activation in rodents and monkeys” (Nature Communications, 2019)
Several values for one entry are separate records, joined by “and”; a condition that tells them apart may be missing. Equal entries are not always repeated.

Legend:
hM3Dq = hM3Dq (Homo sapiens, UniProt P20309, A239G/Y149C); test: DREADD-assisted metabolic mapping (DREAMM), [18F]FDG PET in D1-hM3Dq mice; type: in vivo, mouse; design: 026220; host or cells: mouse brain, dopamine D1 receptor-expressing neurons (transgene); settings: 0.1 mg kg-1 IP
Chain of hM3Dq (P20309 whole entry Y149C/A239G): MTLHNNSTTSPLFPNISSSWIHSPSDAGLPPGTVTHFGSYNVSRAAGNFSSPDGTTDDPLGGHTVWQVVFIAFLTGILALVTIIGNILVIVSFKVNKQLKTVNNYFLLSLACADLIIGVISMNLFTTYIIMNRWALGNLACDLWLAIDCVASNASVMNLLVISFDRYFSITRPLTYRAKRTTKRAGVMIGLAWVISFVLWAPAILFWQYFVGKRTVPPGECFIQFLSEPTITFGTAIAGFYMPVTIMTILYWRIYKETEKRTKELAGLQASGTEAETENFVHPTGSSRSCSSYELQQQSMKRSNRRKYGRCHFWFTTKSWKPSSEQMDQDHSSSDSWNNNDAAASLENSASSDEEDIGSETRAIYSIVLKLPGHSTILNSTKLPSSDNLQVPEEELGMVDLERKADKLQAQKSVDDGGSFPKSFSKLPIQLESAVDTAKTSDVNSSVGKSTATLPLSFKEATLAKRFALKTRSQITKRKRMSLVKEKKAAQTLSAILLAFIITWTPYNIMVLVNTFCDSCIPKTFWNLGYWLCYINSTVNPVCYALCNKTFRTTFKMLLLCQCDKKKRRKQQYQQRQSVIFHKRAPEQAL
Procedure: Mice (D1-hM3Dq, D1-hM4Di or WT littermates, see above) were habituated to experimenter handling and fasted 16 h before the experiment. On the day of the experiment, mice received an IP injection of vehicle (1 ml kg^−1) and were placed back into their home cages. Ten minutes later, mice were injected (IP) with 11 MBq of 2-deoxy-2-[^18F]fluoro-D-glucose (FDG, Cardinal Health) and placed back into their home cages. After 30 min, mice were anesthetized with 1.5% isoflurane, placed on a custom-made bed of a nanoScan small animal PET/CT scanner (Mediso Medical Imaging Systems) and scanned for 20 min on a static acquisition protocol, followed by a CT scan. […] Voxel-based repeated measures with Student’s t test comparing baseline to drug were performed, and the resulting parametric images were filtered for statistically significant (p < 0.05) clusters larger than 100 contiguous voxels. All statistical parametric mapping analyses were performed using Matlab R2016 (Mathworks) and SPM12 (University College London).

WT littermates = test: Locomotor activity in WT littermate rats; type: in vivo, rat
Procedure: Tyrosine hydroxylase (TH):Cre rats (n = 9; founder, K. Deisseroth lab) or WT littermates (n = 9) were bilaterally injected with AAV2 hSyn-DIO-hM3Dq-mCherry (1ul/hemisphere, Addgene), and allowed to recover for 2 + weeks. Following handling, they were habituated to a Med Associates locomotor testing box (43 × 43 × 30.5 cm) for 2 h on 2 days, then repeatedly tested after separate day doses of DREADD agonists and vehicle. […]. Vehicle was administered on 2 separate days, and average locomotion was used for comparison with DREADD agonists. Cohort 2 underwent the same procedures, but with a 4 h testing session, and the following IP injections: vehicle (x2), JHU37152 (0.01–0.3 mg kg^−1), JHU37160 (0.01–0.3 mg kg^−1). All drugs were dissolved in 5% DMSO in saline, and injected 1 ml kg^−1. Following all tests, rats were transcardially perfused, brains sectioned coronally at 40 µm, and VTA-specific expression confirmed using endogenous mCherry reporter expression, which co-localized nearly exclusively with TH immunoreactivity.

cortical hM4Di = molecular target: T1, cortical hM4Di (Homo sapiens, UniProt P08173, A203G/Y113C); test: [11C]clozapine PET DREADD occupancy in rats; settings: rat, read-out: occupancy of cortical hM4Di
T1 sequence (P08173 1-479 Y113C/A203G): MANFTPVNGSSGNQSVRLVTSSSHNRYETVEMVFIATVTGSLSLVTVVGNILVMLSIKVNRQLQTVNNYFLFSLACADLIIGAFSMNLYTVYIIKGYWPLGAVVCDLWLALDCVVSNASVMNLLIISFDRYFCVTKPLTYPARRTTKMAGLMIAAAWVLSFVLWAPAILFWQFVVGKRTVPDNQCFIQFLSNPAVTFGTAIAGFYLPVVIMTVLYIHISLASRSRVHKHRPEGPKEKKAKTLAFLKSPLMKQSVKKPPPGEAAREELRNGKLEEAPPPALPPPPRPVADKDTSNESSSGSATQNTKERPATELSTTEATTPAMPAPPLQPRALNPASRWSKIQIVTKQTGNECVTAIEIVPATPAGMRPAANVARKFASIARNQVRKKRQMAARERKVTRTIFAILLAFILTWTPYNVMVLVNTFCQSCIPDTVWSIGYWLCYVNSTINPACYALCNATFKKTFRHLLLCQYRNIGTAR
Procedure: Animals were anesthetized with isoflurane or a mix of ketamine/xylazine and prepped on a stereotaxic apparatus (Kopf, Germany). […] When indicated, animals were pretreated with vehicle or the indicated drug 10 min before the injection of the PET radiotracer. Total acquisition time was 60 min.
In all cases, the PET data were reconstructed and corrected for dead-time and radioactive decay. All qualitative and quantitative assessments of PET images were performed using the PMOD software environment (PMOD Technologies, Zurich Switzerland). Binding potential BPND (a relative measure of specific binding) was calculated using a reference tissue model using the cerebellum as a reference tissue in rodents. In macaques, the kinetic data were fitted to a two-tissue compartment model and the concentration of parent in plasma was used as an input function, then the volume of distribution ratios compared to cerebellum were calculated to establish BPND. […] Receptor occupancy was calculated using the formula: occupancy = (BPND^0 − BPND^Drug)/BPND^0 × 100, where BPND^0 is the binding potential of the baseline condition and BPND^Drug the binding potential when the animals were pretreated with the drug.

[1] = system: animals without DREADD expression; test: In vivo electrophysiology control: electrically evoked responses in animals without DREADD expression; design: species or system mouse; settings: same injection
Procedure: For recording experiments, animals were anesthetized with […] urethane (i.p.), injected with 0.1 ml lidocaine (s.c.) in the incision points, and placed in a stereotaxic holder (Narishige, Japan). A trephine was drilled above the LA (from bregma, AP 1.5 mm, ML 3.1 mm) and the 32 channel opto-electrode was lowered whilst stimulating until a maximum response was located (DV 4 ± 0.2 mm). Body temperature was maintained constant at 37 °C through a feedback-regulated heating pad. Before recording, tissue was left for 10–20 mins for accommodation. Input–output test curves were recorded for both intensity and pulse length 30 min before and 1 h after drug injections using 1 ms-long pulses at 0.33 Hz (450 nm, 110 mA light intensity, ~14 mW, see Supplementary Fig. 10 Panel A). For electrical stimulation experiments (see Supplementary Fig. 10, Panels F–H), a stimulation bipolar twisted platinum–iridium microelectrode was placed in the internal capsule (AP −1.7 mm, ML 2.5 mm, DV 4.0 mm) to target the axons innervating the amygdala. Electrical pulses were given at an intensity that evoked 80% of the maximum response as biphasic 100 µs long pulses at 0.33 Hz.
Raw data were filtered (0.1–3000 Hz), amplified (100×), digitized and stored (10 kHz sampling rate) for offline analysis, with a tethered recording system (Multichannel Systems, Reutlingen, Germany). […]

CCN1CCN(C2=Nc3cc(Cl)ccc3Nc3c(F)cccc32)CC1 [JHU37160, 8-Chloro-11-(4-ethylpiperazin-1-yl)-4-fluoro-5H-dibenzo[b,e][1,4]diazepine]
brain metabolism ([18F]FDG) (hM3Dq): decreased metabolism | Locomotor activity, individual animals (Figure 3 Panel F) (WT littermates; dose 0.01, listed as J60): 108.174 and 103.461 and 68.1848 and 77.4203 and 88.3922 and 59.3537 and 61.4668 | Locomotor activity, individual animals (Figure 3 Panel F) (WT littermates; dose 0.1, listed as J60): 208.38 and 83.765 and 47.1951 and 156.41 and 190.369 and 42.7803 and 81.1685 | receptor occupancy at 0.1 mg/kg (cortical hM4Di): ~80% | effect on electrical stimulation evoked responses [1]: no effect
